Measured values as given in US11739101B2, “Bifunctional degraders of hematopoietic progenitor kinase and therapeutic uses thereof” (Nurix Therapeutics, Inc., priority 2020, dated 2023).

Target: T1, HPK1 (Homo sapiens, UniProt Q92918)
T1 construct: A HiBiT tag was introduced by CRISPR on the N terminus of HPK1 in Jurkat cells; host or cells: Jurkat (ATCC TIB-152), monoclonal CRISPR HiBiT knock-in line
Assay: HPK1 Cellular HiBiT Degradation Assay
Type: cell-based
Conditions: HiBiT-tagged HPK1 Jurkat cells, 24 hours, 10 uM to 0.1 nM; Dmax = 100 minus lowest % HPK1 remaining vs DMSO vehicle
In short: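 Jurkat cells with CRISPR N-terminal HiBiT-tagged HPK1 were exposed to an 11-point 3.16-fold dilution series, 10 uM to 0.1 nM final, for 24 hours at 37° C./5% CO2. HPK1 was read by HiBiT lytic luminescence against DMSO as 100% and parental cells as background. Dmax is 100 minus the lowest % remaining from a four-parameter fit, with a parallel CellTiter-Glo viability check.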

T1 sequence (Q92918 whole entry): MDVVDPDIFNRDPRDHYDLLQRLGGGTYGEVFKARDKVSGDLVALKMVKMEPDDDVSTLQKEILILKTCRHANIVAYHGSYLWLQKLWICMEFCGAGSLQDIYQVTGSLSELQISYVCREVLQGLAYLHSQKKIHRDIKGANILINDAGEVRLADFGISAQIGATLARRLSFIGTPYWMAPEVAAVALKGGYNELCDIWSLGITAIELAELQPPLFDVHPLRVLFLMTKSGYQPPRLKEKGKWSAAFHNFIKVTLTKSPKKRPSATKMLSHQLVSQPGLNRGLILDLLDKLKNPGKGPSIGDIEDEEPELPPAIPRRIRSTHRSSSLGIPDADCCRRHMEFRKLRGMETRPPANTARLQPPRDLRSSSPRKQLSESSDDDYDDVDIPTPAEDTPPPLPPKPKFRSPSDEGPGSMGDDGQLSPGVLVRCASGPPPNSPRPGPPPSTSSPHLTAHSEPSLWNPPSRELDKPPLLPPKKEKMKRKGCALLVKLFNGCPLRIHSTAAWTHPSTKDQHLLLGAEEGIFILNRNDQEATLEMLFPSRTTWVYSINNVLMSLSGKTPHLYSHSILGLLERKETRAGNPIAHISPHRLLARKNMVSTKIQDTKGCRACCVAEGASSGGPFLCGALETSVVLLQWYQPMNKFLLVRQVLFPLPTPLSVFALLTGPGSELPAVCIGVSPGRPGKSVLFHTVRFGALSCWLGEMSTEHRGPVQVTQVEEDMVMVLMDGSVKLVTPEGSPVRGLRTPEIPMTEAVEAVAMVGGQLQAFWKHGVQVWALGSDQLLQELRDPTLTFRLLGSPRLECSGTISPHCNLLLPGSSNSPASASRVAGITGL

| Structure (SMILES) | Dmax [%] | Cellular HPK1 HiBiT: Dmax (%) |
| --- | --- | --- |
| Cc1cc(F)c(Nc2nc(-c3ccc4c(c3)N([C@H]3C[C@@H](N5CCCCC5)C3)C(=O)C43CCN(C(=O)C4CCN(C(=O)C5CCN(C(=O)CNc6cccc7c6C(=O)N(C6CCC(=O)NC6=O)C7=O)CC5)C4)CC3)cc3ncn(C(C)C)c23)cc1C(=O)NC(C)C (stereo partly drawn) [Example 49] | 45 to 65 |  |
| Cc1cc(F)c(Nc2nc(-c3ccc4c(c3)N([C@H]3C[C@@H](N5CCCCC5)C3)C(=O)C43CCN(C(=O)[C@H]4CC[C@@H](C(=O)N5CCC(Nc6cccc7c6C(=O)N(C6CCC(=O)NC6=O)C7=O)CC5)CC4)CC3)cc3ncn(C(C)C)c23)cc1C(=O)NC(C)C (stereo partly drawn) [Example 50, 4-fluoro-2-methyl-5-[(6-{2-oxo-1-[(1s,3s)-3-(piperidin-1-yl)cyclobutyl]-1′-[(1S,4s)-4-[4-({2-[2,6-dioxopiperidin-3-yl]-1,3-dioxo-2,3-dihydro-1H-isoindol-4-yl}amino)piperidine-1-carbonyl]cyclohexanecarbonyl]-1,2-dihydrospiro[indole-3,4′-piperidin]-6-yl}-3-(propan-2-yl)-3H-imidazo[4,5-c]pyridin-4-yl)amino]-N-(propan-2-yl)benzamide] | 45 to 65 |  |
| Cc1cc(F)c(Nc2nc(-c3ccc4c(c3)N([C@H]3C[C@@H](N5CCCCC5)C3)C(=O)C43CCN(C(=O)[C@H]4CC[C@H](C(=O)N5CCC(Nc6cccc7c6C(=O)N(C6CCC(=O)NC6=O)C7=O)CC5)CC4)CC3)cc3ncn(C(C)C)c23)cc1C(=O)NC(C)C (stereo partly drawn) [Example 51, 4-fluoro-2-methyl-5-[(6-{2-oxo-1′-[(R,4R)-4-[4-({2-[2,6-dioxopiperidin-3-yl]-1,3-dioxo-2,3-dihydro-1H-isoindol-4-yl}amino)piperidine-1-carbonyl]cyclohexanecarbonyl]-1-[(1s,3s)-3-(piperidin-1-yl)cyclobutyl]-1,2-dihydrospiro[indole-3,4′-piperidin]-6-yl}-3-(propan-2-yl)-3H-imidazo[4,5-c]pyridin-4-yl)amino]-N-(propan-2-yl)benzamide] | 45 to 65 |  |
| Cc1cc(F)c(Nc2nc(-c3ccc4c(c3)N([C@H]3C[C@@H](N5CCCCC5)C3)C(=O)C43CCN(C(=O)c4cccc(C5CCN(c6cccc7c6C(=O)N(C6CCC(=O)NC6=O)C7=O)CC5)c4)CC3)cc3ncn(C(C)C)c23)cc1C(=O)NC(C)C (stereo partly drawn) [Example 53, 5-[(6-{1′-[3-(1-{2-[2,6-dioxopiperidin-3-yl]-1,3-dioxo-2,3-dihydro-1H-isoindol-4-yl}piperidin-4-yl)benzoyl]-2-oxo-1-[(1s,3s)-3-(piperidin-1-yl)cyclobutyl]-1,2-dihydrospiro[indole-3,4′-piperidin]-6-yl}-3-(propan-2-yl)-3H-imidazo[4,5-c]pyridin-4-yl)amino]-4-fluoro-2-methyl-N-(propan-2-yl)benzamide] |  | B (45%≤B≤65%) |
| Cc1cc(F)c(Nc2nc(-c3ccc4c(c3)N([C@H]3C[C@@H](N5CCCCC5)C3)C(=O)C43CCN(C(=O)C[C@@H]4CCN(C(=O)[C@H]5CC[C@H](Nc6cccc7c6C(=O)N(C6CCC(=O)NC6=O)C7=O)CC5)C4)CC3)cc3ncn(C(C)C)c23)cc1C(=O)NC(C)C (stereo partly drawn) [Example 56, 4-fluoro-2-methyl-5-{[6-(2-oxo-1′-{2-[(3S)-1-[(1R,4R)-4-({2-[2,6-dioxopiperidin-3-yl]-1,3-dioxo-2,3-dihydro-1H-isoindol-4-yl}amino)cyclohexanecarbonyl]pyrrolidin-3-yl]acetyl}-1-[(1s,3s)-3-(piperidin-1-yl)cyclobutyl]-1,2-dihydrospiro[indole-3,4′-piperidin]-6-yl)-3-(propan-2-yl)-3H-imidazo[4,5-c]pyridin-4-yl]amino}-N-(propan-2-yl)benzamide] | < 45 |  |
| Cc1cc(F)c(Nc2nc(-c3ccc4c(c3)N([C@H]3C[C@@H](N5CCCCC5)C3)C(=O)C43CCN(C(=O)C[C@H]4CCN(C(=O)[C@H]5CC[C@H](Nc6cccc7c6C(=O)N(C6CCC(=O)NC6=O)C7=O)CC5)C4)CC3)cc3ncn(C(C)C)c23)cc1C(=O)NC(C)C (stereo partly drawn) [Example 57, 4-fluoro-2-methyl-5-{[6-(2-oxo-1′-{2-[(3R)-1-[(1R,4R)-4-({2-[2,6-dioxopiperidin-3-yl]-1,3-dioxo-2,3-dihydro-1H-isoindol-4-yl}amino)cyclohexanecarbonyl]pyrrolidin-3-yl]acetyl}-1-[(1s,3s)-3-(piperidin-1-yl)cyclobutyl]-1,2-dihydrospiro[indole-3,4′-piperidin]-6-yl)-3-(propan-2-yl)-3H-imidazo[4,5-c]pyridin-4-yl]amino}-N-(propan-2-yl)benzamide] | < 45 |  |
| Cc1cc(F)c(Nc2nc(-c3ccc4c(c3)N([C@H]3C[C@@H](N5CCCCC5)C3)C(=O)C43CCN(C(=O)c4ccc(S(=O)(=O)N5CCN(c6ccc7c(c6)C(=O)N(C6CCC(=O)NC6=O)C7=O)CC5)cc4)CC3)cc3ncn(C(C)C)c23)cc1C(=O)NC(C)C (stereo partly drawn) [Example 58, 5-[(6-{1′-[4-({4-[2-(2,6-dioxopiperidin-3-yl)-1,3-dioxo-2,3-dihydro-1H-isoindol-5-yl]piperazin-1-yl}sulfonyl)benzoyl]-2-oxo-1-[(1s,3s)-3-(piperidin-1-yl)cyclobutyl]-1,2-dihydrospiro[indole-3,4′-piperidin]-6-yl}-3-(propan-2-yl)-3H-imidazo[4,5-c]pyridin-4-yl)amino]-4-fluoro-2-methyl-N-(propan-2-yl)benzamide] | < 45 |  |
| Cc1cc(F)c(Nc2nc(-c3ccc4c(c3)N([C@H]3C[C@@H](N5CCCCC5)C3)C(=O)C43CCN(C(=O)c4ccc(CC5CCN(c6cccc7c6C(=O)N(C6CCC(=O)NC6=O)C7=O)CC5)cc4)CC3)cc3ncn(C(C)C)c23)cc1C(=O)NC(C)C (stereo partly drawn) [Example 59, 5-[(6-{1′-[4-({1-[2-(2,6-dioxopiperidin-3-yl)-1,3-dioxo-2,3-dihydro-1H-isoindol-4-yl]piperidin-4-yl}Methyl)benzoyl]-2-oxo-1-[(1s,3s)-3-(piperidin-1-yl)cyclobutyl]-1,2-dihydrospiro[indole-3,4′-piperidin]-6-yl}-3-(propan-2-yl)-3H-imidazo[4,5-c]pyridin-4-yl)amino]-4-fluoro-2-methyl-N-(propan-2-yl)benzamide] | 45 to 65 |  |

Now from value to molecule, other results behind:

| Dmax [%] | Structure (SMILES) | Cellular HPK1 HiBiT: Dmax (%) |
| --- | --- | --- |
| 45 to 65 | Cc1cc(F)c(Nc2nc(-c3ccc4c(c3)N([C@H]3C[C@@H](N5CCCCC5)C3)C(=O)C43CCN(C(=O)CCC4CCCN(CC(=O)NC(C(=O)N5C[C@H](O)C[C@H]5C(=O)N[C@@H](C)c5ccc(-c6scnc6C)cc5)C(C)(C)C)C4)CC3)cc3ncn(C(C)C)c23)cc1C(=O)NC(C)C (stereo partly drawn) [Example 48, (2S,4R)-1-((2S)-2-(2-(3-(3-(6-(4-((2-fluoro-5-(isopropylcarbamoyl)-4-methylphenyl)amino)-3-isopropyl-3H-imidazo[4,5-c]pyridin-6-yl)-2-oxo-1-((1s,3s)-3-(piperidin-1-yl)cyclobutyl)spiro[indoline-3,4′-piperidin]-1′-yl)-3-oxopropyl)piperidin-1-yl)acetamido)-3,3-dimethylbutanoyl)-4-hydroxy-N—((S)-1-(4-(4-methylthiazol-5-yl)phenyl)ethyl)pyrrolidine-2-carboxamide] |  |
| 45 to 65 | Cc1cc(F)c(Nc2nc(-c3ccc4c(c3)N([C@H]3C[C@@H](N5CCCCC5)C3)C(=O)C43CCN(C(=O)[C@@H]4CCN(C(=O)[C@H]5CC[C@H](Nc6cccc7c6C(=O)N(C6CCC(=O)NC6=O)C7=O)CC5)C4)CC3)cc3ncn(C(C)C)c23)cc1C(=O)NC(C)C (stereo partly drawn) [Example 52, 4-fluoro-2-methyl-5-[(6-{2-oxo-1′-[(3R)-1-[(1R,4R)-4-({2-[2,6-dioxopiperidin-3-yl]-1,3-dioxo-2,3-dihydro-1H-isoindol-4-yl}amino)cyclohexanecarbonyl]pyrrolidine-3-carbonyl]-1-[(1s,3s)-3-(piperidin-1-yl)cyclobutyl]-1,2-dihydrospiro[indole-3,4′-piperidin]-6-yl}-3-(propan-2-yl)-3H-imidazo[4,5-c]pyridin-4-yl)amino]-N-(propan-2-yl)benzamide] |  |
| < 45 | Cc1cc(F)c(Nc2nc(-c3ccc4c(c3)N(C3CC(N5CCCCC5)C3)C(=O)C43CCN(C(=O)[C@@H]4CCN(C(=O)[C@H]5CC[C@H](Oc6cccc7c6C(=O)N(C6CCC(=O)NC6=O)C7=O)CC5)C4)CC3)cc3ncn(C(C)C)c23)cc1C(=O)NC(C)C (stereo partly drawn) [Example 54, 4-fluoro-2-methyl-5-[(6-{2-oxo-1′-[(3R)-1-[(1R,4R)-4-{[2-(2,6-dioxopiperidin-3-yl)-1,3-dioxo-2,3-dihydro-1H-isoindol-4-yl]oxy}cyclohexanecarbonyl]pyrrolidine-3-carbonyl]-1-[(1s,3s)-3-(piperidin-1-yl)cyclobutyl]-1,2-dihydrospiro[indole-3,4′-piperidin]-6-yl}-3-(propan-2-yl)-3H-imidazo[4,5-c]pyridin-4-yl)amino]-N-(propan-2-yl)benzamide] |  |
| > 65 | Cc1cc(F)c(Nc2nc(-c3ccc4c(c3)N([C@H]3C[C@@H](N5CCCCC5)C3)C(=O)C43CCN(C(=O)OC4CCN(C(=O)C5CCN(c6ccc7c(c6)C(=O)N(C6CCC(=O)NC6=O)C7=O)CC5)CC4)CC3)cc3ncn(C(C)C)c23)cc1C(=O)NC(C)C (stereo partly drawn) [Example 55, 1-(1-{2-[2,6-dioxopiperidin-3-yl]-1,3-dioxoisoindol-5-yl}piperidine-4-carbonyl)piperidin-4-yl 6-(4-{[2-fluoro-5-(isopropylcarbamoyl)-4-methylphenyl]amino}-3-isopropylimidazo[4,5-c]pyridin-6-yl)-2-oxo-1-[(1s,3s)-3-(piperidin-1-yl)cyclobutyl]spiro[indole-3,4′-piperidine]-1′-carboxylate] |  |
